Test results reported in patent publication US20250101032A1, “EXATECAN DERIVATIVES AND ANTIBODY-DRUG CONJUGATES THEREOF” (priority 2021, published 2025).
In brackets after ≈: the same amount, converted by molar mass.

Assays:
physchem = conditions: 25 °C, pH 7.4, aqueous buffer, kinetic from dmso stock
Experimental: In-vitro kinetic solubilities of the compounds in PBS pH 7.4 buffer at 25° C. were determined by diluting compounds from 100% dimethyl sulfoxide (DMSO) into PBS buffer and measuring absorbance at 490, 590 and 650 nm. Stock concentrations in 100% DMSO were provided at 1-6 mM in 100% DMSO. Kinetic solubilities were determined by diluting test compounds from 100% DMSO into PBS pH 7.4 buffer, as duplicate, 10 point 2-fold serial dilution starting at 100× dilution of stock DMS solution into PBS buffer in a clear, flat bottom polystyrene assay plates. Total assay volume was 200 microliters. Solutions were mixed by plate shaking, incubated for 30 m at 25° C., and absorbance was read at 490, 590 and 650 nm. […] in PBS buffer was used as a blank. For each test compound, average optical density (GD) at each concentration was determined by averaging the blank corrected sum of absorption at 490 nm, 590 nm and 650 nm, over duplicate measurements. Turbidity threshold optical density value was set as a sum of mean plus two standard deviations of the mean of absorbances at 490, 590 and 650 nm for 1% (v/v) DMSO in PBS pH 7.4 buffer. Highest soluble concentration (micromolar) corresponded to the highest concentration at which average optical density was below optical density value set for turbidity threshold (Table 4). Amiodarone and propranolol were used as low and high solubility controls respectively.

SKBR3 = experiment: In vitro cytotoxicity assay (CellTiter-Glo), SKBR3; format: cell-based, Human; conditions: Homo sapiens, SK-BR-3, 144 h, read-out: Cytotoxicity IC50
Experimental: (§1) Human tumor cell lines, SK-BR-3, NCI-H292, HT-29, MCF-7, NCI-N87, and FaDu were obtained from ATCC. NCI-H292, HT-29, MCF-7, and NCI-N87 cells were cultured in RPMI-1640 media (Gibco, Life Technologies) supplemented with 10% v/v heat inactivated FBS (Corning), FaDu cells were maintained in DMEM media (Gibco, Life Technologies) supplemented with 10% v/v heat inactivated FBS (Corning). SK-BR-3 cells were maintained in McCoys 5A medium (Gibco, Life Technologies) supplemented with 10% […] heat inactivated FBS (Corning) at 37° C. in a humidified incubator containing 5% CO2.
(§2) Lyophilized compounds were dissolved in 100% dry DMSO, aliquots frozen and stored at −80° C. Concentration and purity of compound stock solutions in DMSO were determined by RP-HPLC Agilent 1100 platform with 1200 DAD and SofTA ELSD detectors, and the Agilent 6150 MS system (UV/VIS, ELSD purity and MS compound identity confirmation). Shimadzu 3.0 mm×30 mm XR ODS 2.2 μm column was run at 50° C., 1.5 mL/min. Solvent A: 0.1% Formic acid in water, Solvent B: 0.08% Formic acid in methanol-Gradient: 5%-100% B in 3.0 min, 100% solvent B for 0.3 min. Concentration of compounds in 100% DMSO determined by ELS ranged from 1-6 mM.
(§3) Cells were plated in 96-well white flat-bottomed plates (Corning) at 2.0×10^3 cells per well in 100 μL culture medium. After incubation for 24 hours, test compounds were added at a range of concentrations as ten point serial dilution as duplicates or triplicates. Following further incubation for 6 days 37° C., 5% CO2, cell viability was assessed with the use of a CellTiter-Glo Luminescent Cell Viability Assay (Promega). Luminescence was measured using the GloMax instrument (Promega). […] For a subset of payloads, each treatment was independently repeated two to eight times, and IC50 values were averaged. […] Standard deviation (stdev) is shown as (N/A) for treatment performed once.

HT29 = experiment: In vitro cytotoxicity assay (CellTiter-Glo), HT29; format: cell-based, Human; conditions: Homo sapiens, HT-29, 144 h, read-out: Cytotoxicity IC50
Experimental: as §1, §2, §3

NCI-H292 = experiment: In vitro cytotoxicity assay (CellTiter-Glo), NCI-H292; format: cell-based, Human; conditions: Homo sapiens, NCI-H292, 144 h, read-out: Cytotoxicity IC50
Experimental: as §1, §2, §3

MCF7 = experiment: In vitro cytotoxicity assay (CellTiter-Glo), MCF7; format: cell-based, Human; conditions: Homo sapiens, MCF7, 144 h, read-out: Cytotoxicity IC50
Experimental: as §1, §2, §3

NCI-N87 = experiment: In vitro cytotoxicity assay (CellTiter-Glo), NCI-N87; format: cell-based, Human; conditions: Homo sapiens, NCI-N87, 144 h, read-out: Cytotoxicity IC50
Experimental: as §1, §2, §3

FaDu = experiment: In vitro cytotoxicity assay (CellTiter-Glo), FaDu; format: cell-based, Human; conditions: Homo sapiens, FaDu, 144 h, read-out: Cytotoxicity IC50
Experimental: as §1, §2, §3

SKOV3 = experiment: In vitro cytotoxicity assay (CellTiter-Glo), SKOV3; format: cell-based; conditions: Homo sapiens, SK-OV-3, 144 h, read-out: Cytotoxicity IC50
Experimental: (§4) Lyophilized compounds were dissolved in 100% dry DMSO, aliquots frozen and stored at −80° C. […] Shimadzu 3.0 mm×30 mm XR ODS 2.2 μm column was run at 50° C., 1.5 mL/min. Solvent A: 0.1% Formic acid in water, Solvent B: 0.08% Formic acid in methanol-Gradient: 5%-100% B in 3.0 min, 100% solvent B for 0.3 min.
as §3

BXPC3 = experiment: In vitro cytotoxicity assay (CellTiter-Glo), BXPC3; format: cell-based; conditions: Homo sapiens, BXPC-3, 144 h, read-out: Cytotoxicity IC50
Experimental: as §4, §3

Structure (SMILES)	solubility at 30 min (physchem)	IC50 (SKBR3)	IC50 (HT29)	IC50 (NCI-H292)	IC50 (MCF7)	IC50 (NCI-N87)	IC50 (FaDu)	IC50 (SKOV3)	IC50 (BXPC3)
CC[C@@]1(O)C(=O)OCc2c1cc1n(c2=O)Cc2c-1nc1cc(F)c(C)c3c1c2[C@@H](NCc1cnnn1CCO)CC3 [Compound 109]	17 µM (≈ 9.53 µg/mL)	7.3 nM	56.8 nM	26.1 nM	12.8 nM	29.3 nM	8.3 nM	32.4 nM	10.8 nM
CC[C@@]1(O)C(=O)OCc2c1cc1n(c2=O)Cc2c-1nc1cc(F)c(C)c3c1c2[C@@H](NS(=O)(=O)CCCO)CC3 [Compound 110]	18 µM (≈ 10 µg/mL)	7.6 nM	28.6 nM	18.8 nM	22.4 nM	18.2 nM	15.6 nM	59.2 nM	15.7 nM
CC[C@@]1(O)C(=O)OCc2c1cc1n(c2=O)Cc2c-1nc1cc(F)c(C)c3c1c2[C@@H](Nc1c(NCC(O)CO)c(=O)c1=O)CC3 (stereo partly drawn) [Compound 115]	23 µM (≈ 13.9 µg/mL)	62.8 nM	155 nM	128 nM	47 nM	127 nM	56.1 nM	174 nM	55 nM
CC[C@@]1(O)C(=O)OCc2c1cc1n(c2=O)Cc2c-1nc1cc(F)c(C)c3c1c2[C@@H](NC(=O)CCC(=O)NCC(O)CO)CC3 (stereo partly drawn) [Compound 117]	30 µM (≈ 18.3 µg/mL)	474 nM	2910 nM	888 nM	342 nM	1450 nM	234 nM	1090 nM	412 nM
CC[C@@]1(O)C(=O)OCc2c1cc1n(c2=O)Cc2c-1nc1cc(F)c(C)c3c1c2[C@@H](NC(=O)NCC(O)CO)CC3 (stereo partly drawn) [Compound 118]	30 µM (≈ 16.6 µg/mL)	23.9 nM	291 nM	88.4 nM	45.9 nM	96.6 nM	17.5 nM	96.7 nM	52.7 nM
CC[C@@]1(O)C(=O)OCc2c1cc1n(c2=O)Cc2c-1nc1cc(F)c(C)c3c1c2[C@@H](Nc1c(O)c(=O)c1=O)CC3 [Compound 129]	22 µM (≈ 11.7 µg/mL)	169 nM	282 nM	208 nM	79.3 nM	300 nM	92.9 nM	265 nM	134 nM
CC[C@@]1(O)C(=O)OCc2c1cc1n(c2=O)Cc2c-1nc1cc(F)c(C)c3c1c2[C@@H](N(CCO)C(C)=O)CC3 [Compound 136]	23 µM (≈ 12 µg/mL)	23.7 nM	36.8 nM	16.3 nM	18.4 nM	40.2 nM	5.2 nM	98.4 nM	24.9 nM
CC[C@@]1(O)C(=O)OCc2c1cc1n(c2=O)Cc2c-1nc1cc(F)c(C)c3c1c2[C@@H](N)CC3 [Exatecan, exatecan]	24 µM (≈ 10.5 µg/mL)	0.5 nM	1 nM	1.3 nM	0.4 nM	1.2 nM	0.6 nM	0.7 nM	0.3 nM
